Measured values published in patent publication US7517874B2 (priority 2007, dated 2009).
pEC50: −log10 of the molar value. Where two headings read alike, the source gives them in different places.

What was measured:
[1] = biological target: human CB1 receptor (hCB1) (Homo sapiens, UniProt P21554); experiment: cell-based; type: cell-based; details: for EC50: groups >100 nM-10 μM and >10 μM, cAMP, CHO-K1 hCB1, read-out: EC50 HCB1
Procedure, shortened: (§1)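 Readout: LANCE TR-FRET cAMP, back-calculated from a concurrent standard curve and scaled between forskolin-only and forskolin + 1 μM CP55,940 wells. EC50 and intrinsic activity came from four-parameter fits.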

[2] = biological target: T1, rat CB2 receptor (rCB2) (Rattus norvegicus, UniProt Q9QZN9); experiment: cell-based; type: cell-based; details: for +/− RCB2: agonist or inverse agonist at rCB2
T1 sequence (Q9QZN9 1-360): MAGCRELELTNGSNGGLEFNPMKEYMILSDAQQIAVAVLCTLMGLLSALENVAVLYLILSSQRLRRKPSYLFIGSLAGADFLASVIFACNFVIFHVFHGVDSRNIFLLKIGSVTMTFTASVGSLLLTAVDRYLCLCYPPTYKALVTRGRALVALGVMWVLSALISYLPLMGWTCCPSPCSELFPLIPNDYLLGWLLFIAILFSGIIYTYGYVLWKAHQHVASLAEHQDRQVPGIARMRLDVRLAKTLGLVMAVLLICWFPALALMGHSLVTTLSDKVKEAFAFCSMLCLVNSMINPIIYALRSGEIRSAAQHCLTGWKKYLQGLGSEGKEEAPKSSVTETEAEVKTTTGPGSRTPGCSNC
Procedure, shortened: as §1

Sequence of human CB1 receptor (hCB1) (P21554 whole entry): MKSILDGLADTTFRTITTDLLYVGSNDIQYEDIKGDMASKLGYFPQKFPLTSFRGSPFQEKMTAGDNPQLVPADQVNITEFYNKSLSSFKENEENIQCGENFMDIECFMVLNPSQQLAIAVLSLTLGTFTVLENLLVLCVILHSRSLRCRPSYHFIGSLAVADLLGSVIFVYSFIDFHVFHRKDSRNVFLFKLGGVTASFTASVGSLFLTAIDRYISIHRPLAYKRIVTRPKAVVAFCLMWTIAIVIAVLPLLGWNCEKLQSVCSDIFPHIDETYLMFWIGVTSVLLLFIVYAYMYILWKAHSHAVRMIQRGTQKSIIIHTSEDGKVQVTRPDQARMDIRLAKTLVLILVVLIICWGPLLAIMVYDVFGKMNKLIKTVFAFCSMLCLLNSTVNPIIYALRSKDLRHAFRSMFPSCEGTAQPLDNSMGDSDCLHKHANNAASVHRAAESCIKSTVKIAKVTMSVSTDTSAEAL

Row | SMILES | pEC50 [1] | +/− RCB2 [2] | EC50 [1] | pEC50 [2]
1 | CC(C)(C)[C@@H](CO)NC(=O)c1nc(-c2ccccc2)n2c1CN(S(=O)(=O)c1ccc(F)cc1)CC2 [Compound 101, (S)-7-(4-fluorophenylsulfonyl)-N-(1-hydroxy-3,3-dimethylbutan-2-yl)-3-phenyl-5,6,7,8-tetrahydroimidazo[1,5-a]pyrazine-1-carboxamide] | < 5.00 | − |  | 
2 | CC(C)(C)[C@@H](CO)NC(=O)c1nc(-c2ccccc2)n2c1CN(S(=O)(=O)c1ccccc1)CC2 [Compound 102, (S)-N-(1-hydroxy-3,3-dimethylbutan-2-yl)-3-phenyl-7-(phenylsulfonyl)-5,6,7,8-tetrahydroimidazo[1,5-a]pyrazine-1-carboxamide] | < 5.00 | − |  | 
3 | CC(C)(C)CNC(=O)c1nc(-c2ccccc2)n2c1CN(S(=O)(=O)c1ccc(F)cc1)CC2 [Compound 103, 7-(4-fluorophenylsulfonyl)-N-neopentyl-3-phenyl-5,6,7,8-tetrahydroimidazo[1,5-a]pyrazine-1-carboxamide] | < 5.00 | − |  | 
4 | CC(C)(C)CNC(=O)c1nc(-c2ccccc2)n2c1CN(S(=O)(=O)c1ccccc1)CC2 [Compound 104, N-neopentyl-3-phenyl-7-(phenylsulfonyl)-5,6,7,8-tetrahydroimidazo[1,5-a]pyrazine-1-carboxamide] | < 5.00 | − |  | 
5 | O=C(c1nc(-c2ccccc2)n2c1CN(S(=O)(=O)c1ccc(F)cc1)CC2)N1CCOCC1 [Compound 105, (7-(4-fluorophenylsulfonyl)-3-phenyl-5,6,7,8-tetrahydroimidazo[1,5-a]pyrazine-1-yl)(morpholino)methanone] |  | − | > 10000 nM | 
6 | CNC(=O)[C@@H](NC(=O)c1nc(-c2ccccc2)n2c1CN(S(=O)(=O)c1ccc(Cl)cc1)CC2)C(C)(C)C [Compound 106, (S)-7-(4-chlorophenylsulfonyl)-N-(3,3-dimethyl-1-(methylamino)-1-oxobutan-2-yl)-3-phenyl-5,6,7,8-tetrahydroimidazo[1,5-a]pyrazine-1-carboxamide] | < 5.00 | − |  | 
7 | CNC(=O)[C@H](C)NC(=O)c1nc(-c2ccccc2)n2c1CN(S(=O)(=O)c1ccc(F)cc1)CC2 [Compound 110, (S)-7-(4-fluorophenylsulfonyl)-N-(1-(methylamino)-1-oxopropan-2-yl)-3-phenyl-5,6,7,8-tetrahydroimidazo[1,5-a]pyrazine-1-carboxamide] | < 5.00 | + |  | 
8 | CCS(=O)(=O)N1CCn2c(-c3ccccc3)nc(C(=O)N[C@H](C)C3CCCCC3)c2C1 [Compound 111, (R)-N-(1-cyclohexylethyl)-7-(ethylsulfonyl)-3-phenyl-5,6,7,8-tetrahydroimidazo[1,5-a]pyrazine-1-carboxamide] | < 5.00 |  |  | < 5.00
9 | CCS(=O)(=O)N1CCn2c(-c3ccccc3)nc(C(=O)NC3C4(C)CCC(C4)C3(C)C)c2C1 (stereo not drawn) [Compound 112, 7-(ethylsulfonyl)-3-phenyl-N-(1,3,3-trimethylbicyclo[2.2.1]heptan-2-yl)-5,6,7,8-tetrahydroimidazo[1,5-a]pyrazine-1-carboxamide] | < 5.00 | − |  | 
10 | CCS(=O)(=O)N1CCn2c(-c3ccccc3)nc(C(=O)N[C@@H](C)c3ccccc3)c2C1 [Compound 113, (S)-7-(ethylsulfonyl)-3-phenyl-N-(1-phenylethyl)-5,6,7,8-tetrahydroimidazo[1,5-a]pyrazine-1-carboxamide] | < 5.00 | − |  | 
11 | CCS(=O)(=O)N1CCn2c(-c3ccccc3)nc(C(=O)Nc3ccccc3)c2C1 [Compound 114, 7-(ethylsulfonyl)-N,3-diphenyl-5,6,7,8-tetrahydroimidazo[1,5-a]pyrazine-1-carboxamide] |  | − | > 10000 nM | 
12 | CCS(=O)(=O)N1CCn2c(-c3ccccc3)nc(C(=O)NN3CCCCC3)c2C1 [Compound 115, 7-(ethylsulfonyl)-3-phenyl-N-(piperidin-1-yl)-5,6,7,8-tetrahydroimidazo[1,5-a]pyrazine-1-carboxamide] |  | − | > 10000 nM | 
13 | CCS(=O)(=O)N1CCn2c(-c3ccc(Cl)cc3)nc(C(=O)NCCC(C)C)c2C1 [Compound 116, 3-(4-chlorophenyl)-7-(ethylsulfonyl)-N-isopentyl-5,6,7,8-tetrahydroimidazo[1,5-a]pyrazine-1-carboxamide] | < 5.00 | − |  | 
14 | CCS(=O)(=O)N1CCn2c(-c3ccccc3)nc(C(=O)NCC3CCOCC3)c2C1 [Compound 117, 7-(ethylsulfonyl)-3-phenyl-N-((tetrahydro-2H-pyran-4-yl)methyl)-5,6,7,8-tetrahydroimidazo[1,5-a]pyrazine-1-carboxamide] |  | − | > 10000 nM | 
15 | CCS(=O)(=O)N1CCn2c(-c3ccccc3)nc(C(=O)NC3CCCCC3)c2C1 [Compound 118, N-cyclohexyl-7-(ethylsulfonyl)-3-phenyl-5,6,7,8-tetrahydroimidazo[1,5-a]pyrazine-1-carboxamide] | < 5.00 | − |  | 
16 | CC12CCC(C1)C(C)(C)C2NC(=O)c1nc(-c2ccccc2)n2c1CN(C(=O)C1CC1)CC2 (stereo not drawn) [Compound 119, 7-(cyclopropanecarbonyl)-3-phenyl-N-(1,3,3-trimethyl-bicyclo [2.2.1]heptan-2-yl)-5,6,7,8-tetrahydroimidazo[1,5-a]pyrazine-1-carboxamide] | < 5.00 | − |  | 
17 | CC12CCC(C1)C(C)(C)C2NC(=O)c1nc(-c2ccccc2)n2c1CN(C(=O)c1ccccc1)CC2 (stereo not drawn) [Compound 120, 7-benzoyl-3-phenyl-N-(1,3,3-trimethylbicyclo[2.2.1]heptan-2-yl)-5,6,7,8-tetrahydroimidazo[1,5-a]pyrazine-1-carboxamide] | < 5.00 | + |  | 
18 | CC12CCC(C1)C(C)(C)C2NC(=O)c1nc(-c2ccccc2)n2c1CN(C(=O)C1CCOC1)CC2 (stereo not drawn) [Compound 121, 3-phenyl-7-(tetrahydrofuran-3-carbonyl)-N-(1,3,3-trimethylbicyclo[2.2.1]heptan-2-yl)-5,6,7,8-tetrahydroimidazo[1,5-a]pyrazine-1-carboxamide] | < 5.00 | − |  | 
19 | CC12CCC(C1)C(C)(C)C2NC(=O)c1nc(-c2ccccc2)n2c1CN(C(=O)c1ccco1)CC2 (stereo not drawn) [Compound 122, 7-(furan-2-carbonyl)-3-phenyl-N-(1,3,3-trimethylbicyclo[2.2.1]heptan-2-yl)-5,6,7,8-tetrahydroimidazo[1,5-a]pyrazine-1-carboxamide] |  | − | > 10000 nM | 
20 | CC(C)(C)C(=O)N1CCn2c(-c3ccccc3)nc(C(=O)NC3C4(C)CCC(C4)C3(C)C)c2C1 (stereo not drawn) [Compound 123, 3-phenyl-7-pivaloyl-N-(1,3,3-trimethylbicyclo[2.2.1]heptan-2-yl)-5,6,7,8-tetrahydroimidazo[1,5-a]pyrazine-1-carboxamide] | < 5.00 | − |  | 
21 | C[C@H](NC(=O)c1nc(-c2ccccc2)n2c1CN(C(=O)C1CC1)CC2)c1ccccc1 [Compound 124, (S)-7-(cyclopropanecarbonyl)-3-phenyl-N-(1-phenylethyl)-5,6,7,8-tetrahydroimidazo[1,5-a]pyrazine-1-carboxamide] | < 5.00 | − |  | 
22 | C[C@H](NC(=O)c1nc(-c2ccccc2)n2c1CN(C(=O)c1ccccc1)CC2)c1ccccc1 [Compound 125, (S)-7-benzoyl-3-phenyl-N-(1-phenylethyl)-5,6,7,8-tetrahydroimidazo[1,5-a]pyrazine-1-carboxamide] | < 5.00 | − |  | 
23 | CNC(=O)[C@@H](NC(=O)c1nc(-c2ccccc2)n2c1CN(C(=O)C1CC1)CC2)C(C)(C)C [Compound 126, (S)-7-(cyclopropanecarbonyl)-N-(3,3-dimethyl-1-(methylamino)-1-oxobutan-2-yl)-3-phenyl-5,6,7,8-tetrahydroimidazo[1,5-a]pyrazine-1-carboxamide] | < 5.00 | − |  | 
24 | CNC(=O)[C@@H](NC(=O)c1nc(-c2ccccc2)n2c1CN(C(=O)c1ccccc1)CC2)C(C)(C)C [Compound 127, (S)-7-benzoyl-N-(3,3-dimethyl-1-(methylamino)-1-oxobutan-2-yl)-3-phenyl-5,6,7,8-tetrahydroimidazo[1,5-a]pyrazine-1-carboxamide] | < 5.00 |  |  | < 5.00
25 | CNC(=O)[C@@H](NC(=O)c1nc(-c2ccccc2)n2c1CN(C(=O)c1ccco1)CC2)C(C)(C)C [Compound 128, (S)-N-(3,3-dimethyl-1-(methylamino)-1-oxobutan-2-yl)-7-(furan-2-carbonyl)-3-phenyl-5,6,7,8-tetrahydroimidazo[1,5-a]pyrazine-1-carboxamide] | < 5.00 | − |  | 
26 | O=C(Nc1ccccc1)c1nc(-c2ccccc2)n2c1CN(C(=O)C1CC1)CC2 [Compound 129, 7-(cyclopropanecarbonyl)-N,3-diphenyl-5,6,7,8-tetrahydroimidazo[1,5-a]pyrazine-1-carboxamide] |  | − | > 10000 nM | 
27 | CC(C)CCNC(=O)c1nc(-c2ccc(Cl)cc2)n2c1CN(C(=O)c1ccccc1)CC2 [Compound 130, 7-benzoyl-3-(4-chlorophenyl)-N-isopentyl-5,6,7,8-tetrahydroimidazo[1,5-a]pyrazine-1-carboxamide] | < 5.00 | − |  | 
